The target of test [1] is thrombin (Homo sapiens, UniProt P00734). The test can be described thus: Thrombin-inhibitory activity of the potential inhibitors in plasma samples. It is filed as biochemical. The conditions noted are these: citrate plasma (Octapharma); ecarin stimulation; fluorogenic thrombin substrate, 360/465 nm. How it is done:
a.5) Determination of the Thrombin-Inhibitory Activity of the Potential Inhibitors in Plasma Samples
Various concentrations of the substances to be tested are dissolved in dimethyl sulfoxide and diluted with water.

The target in test [2] is T1, factor Xa (Homo sapiens, UniProt P00742).
T1 construct: tissue Octapharma; host or cells: citrate plasma
The test can be described thus: Factor Xa-inhibitory activity of the potential inhibitors in plasma samples. It is filed as biochemical. The conditions noted are these: citrate plasma (Octapharma); factor X activated by rattlesnake toxin (RVV); ChromozymX chromogenic substrate, 405 nm. How it is done:
a.4) Determination of the Factor Xa-Inhibitory Activity of the Potential Inhibitors in Plasma Samples
To determine the inhibition of factor Xa in plasma samples, the factor X present in plasma is activated by a protease from rattlesnake toxin. The factor Xa activity or its inhibition by potential inhibitors is then measured by addition of a chromogenic substrate.
Various concentrations of the substances to be tested are dissolved in dimethyl sulfoxide and diluted with an aqueous refludan solution (10 μg/ml). In clear 96-well plates having a flat bottom, 30 μl of citrate plasma (Octapharma) are mixed with 10 μl of the substance dilution. Then, either 20 μl of a solution of a rattlesnake toxin (Russel viper venom (RVV); RVV reagent: Pentapharm 121-06, final concentration 0.6 mU) in an aqueous calcium chloride solution buffer (final concentration of calcium chloride 0.05 M) or 20 μl of the aqueous calcium chloride solution (final concentration of calcium chloride 0.05 M) without RVV reagent (as reference for an unstimulated sample) are added. After addition of 20 μl of ChromozymX substrate (final concentration 1.6 mmol/l, Bachem L-1565, diluted in water) the samples are measured in a SpectraFluor Reader using a measurement filter of 405 nm each minute over a period of 20 minutes. The IC50 value is determined when about 70% of the maximum signal is reached (about 12 min).

Each structure is given as a SMILES string.

T1 sequence (P00742 235-488 limits assumed): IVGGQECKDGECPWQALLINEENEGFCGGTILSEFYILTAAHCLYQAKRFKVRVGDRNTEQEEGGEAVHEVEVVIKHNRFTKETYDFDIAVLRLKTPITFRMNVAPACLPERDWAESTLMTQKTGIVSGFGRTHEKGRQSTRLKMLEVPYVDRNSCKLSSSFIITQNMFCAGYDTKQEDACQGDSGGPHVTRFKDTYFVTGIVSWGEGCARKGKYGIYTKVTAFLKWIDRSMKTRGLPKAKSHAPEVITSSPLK
T1 sequence (P00742 41-179 limits assumed): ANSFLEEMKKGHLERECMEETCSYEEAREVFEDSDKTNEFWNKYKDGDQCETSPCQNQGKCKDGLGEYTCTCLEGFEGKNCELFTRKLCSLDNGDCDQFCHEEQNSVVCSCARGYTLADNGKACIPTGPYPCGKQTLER

The IC50 is the concentration needed to halve the response being measured. A lower IC50 goes with higher potency. Turning to `CCOc1cccn(-c2ccc(N3C[C@H](CNC(=O)c4ccc(Cl)s4)OC3=O)cc2C)c1=O` [Example 4, 5-Chloro-N-({(5S)-3-[4-(3-ethoxy-2-oxopyridin-1(2H)-yl)-3-methylphenyl]-2-oxo-1,3-oxazolidin-5-yl}methyl)thiophene-2-carboxamide], the IC50 in test [1] amounted to 286 nM; in test [2], 201 nM. Regarding `CC(=O)COc1cccn(-c2ccc(N3C[C@H](CNC(=O)c4ccc(Cl)s4)OC3=O)cc2C)c1=O` [Example 7, 5-Chloro-N-[((5S)-3-{3-methyl-4-[2-oxo-3-(2-oxopropoxy)pyridin-1(2H)-yl]phenyl}-2-oxo-1,3-oxazolidin-5-yl)methyl]thiophene-2-carboxamide], the 50% inhibitory concentration (IC50) in test [1] is 277 nM; in test [2], 206 nM. The matching figures for `Cc1cc(N2C[C@H](CNC(=O)c3ccc(Cl)s3)OC2=O)ccc1-n1cccc(OCC(C)(C)O)c1=O` [Example 9, 5-Chloro-N-[((5S)-3-{4-[3-(2-hydroxy-2-methylpropoxy)-2-oxopyridin-1(2H)-yl]-3-methylphenyl}-2-oxo-1,3-oxazolidin-5-yl)methyl]thiophene-2-carboxamide]: 247 nM and 149 nM. The corresponding values for `Cc1cc(N2C[C@H](CNC(=O)c3ccc(Cl)s3)OC2=O)cc(C)c1-n1cccc(OCCO)c1=O` [Example 16, 5-Chloro-N-{[(5S)-3-{4-[3-(2-hydroxyethoxy)-2-oxopyridin-1(2H)-yl]-3,5-dimethylphenyl}-2-oxo-1,3-oxazolidin-5-yl]methyl}thiophene-2-carboxamide] are 14 nM and 213 nM.

Consider `CCOc1nccn(-c2ccc(N3C[C@H](CNC(=O)c4ccc(Cl)s4)OC3=O)cc2C)c1=O` [Example 18, 5-Chloro-N-({(5S)-3-[4-(3-ethoxy-2-oxopyrazin-1(2H)-yl)-3-methylphenyl]-2-oxo-1,3-oxazolidin-5-yl}methyl)thiophene-2-carboxamide], for which the half-inhibitory concentration (IC50) in test [1] was found to be 502 nM; in test [2], 319 nM.

In the case of `CCCc1cc(N2C[C@H](CNC(=O)c3ccc(Cl)s3)OC2=O)ccc1-n1ccccc1=O` [Example 19], the 50% inhibitory concentration (IC50) came out at 8 nM in test [1] and 361 nM in test [2]. The corresponding values for `COCc1cc(N2C[C@H](CNC(=O)c3ccc(Cl)s3)OC2=O)ccc1N1CCCCC1=O` [Example 27, 5-Chloro-N-({(5S)-3-[3-(methoxymethyl)-4-(2-oxopiperidin-1-yl)phenyl]-2-oxo-1,3-oxazolidin-5-yl}methyl)thiophene-2-carboxamide] are 54 nM and 39 nM.

Regarding `O=C(NC[C@H]1CN(c2ccc(N3CCOCCC3=O)c(C3CC3)c2)C(=O)O1)c1ccc(Cl)s1` [Example 30, 5-Chloro-N-({(5S)-3-[3-cyclopropyl-4-(5-oxo-1,4-oxazepan-4-yl)phenyl]-2-oxo-1,3-oxazolidin-5-yl}methyl)thiophene-2-carboxamide], the results for the half-maximal inhibitory concentration (IC50) in test [1] and in test [2] were 34 nM and 25 nM, respectively. In the case of `CC(C)c1cc(N2C[C@H](CNC(=O)c3ccc(Cl)s3)OC2=O)ccc1N1CCCNC1=O` [Example 32, 5-Chloro-N-({(5S)-3-[3-isopropyl-4-(2-oxotetrahydropyrimidin-1(2H)-yl)phenyl]-2-oxo-1,3-oxazolidin-5-yl}methyl)thiophene-2-carboxamide], the values for the IC50 in test [1] and in test [2] were 151 nM and 70 nM, respectively. The matching figures for `COc1cc(N2C[C@H](CNC(=O)c3ccc(Cl)s3)OC2=O)ccc1N1CCCN(C)C1=O` [Example 35, 5-Chloro-N-({(5S)-3-[3-methoxy-4-(3-methyl-2-oxotetrahydropyrimidin-1(2H)-yl)phenyl]-2-oxo-1,3-oxazolidin-5-yl}methyl)thiophene-2-carboxamide]: 390 nM and 552 nM.

For the compound `O=C(NC[C@H]1CN(c2ccc(N3CCCN(CCO)C3=O)c(C(F)(F)F)c2)C(=O)O1)c1ccc(Cl)s1` [Example 38, 5-Chloro-N-{[(5S)-3-{4-[3-(2-hydroxyethyl)-2-oxotetrahydropyrimidin-1(2H)-yl]-3-(trifluoro-methyl)phenyl}-2-oxo-1,3-oxazolidin-5-yl]methyl}thiophene-2-carboxamide], half-maximal inhibition in test [2] (IC50) was put at 252 nM.

The values are drawn from patent US8198267B2, “Substituted oxazolidinones and their use” (Bayer Intellectual Property GmbH, priority 2007, dated 2012).
